Assay results from ChEMBL document CHEMBL1122916, “Synthesis of xanthines as adenosine antagonists, a practical quantitative structure-activity relationship application” (J Med Chem, 1985).
Converted amounts (≈) assume the structure as drawn.

Key:
Adenosine receptor A1 [1] = target: T1, Adenosine receptor A1 (Bos taurus, UniProt P28190)
T1 sequence (P28190 whole entry): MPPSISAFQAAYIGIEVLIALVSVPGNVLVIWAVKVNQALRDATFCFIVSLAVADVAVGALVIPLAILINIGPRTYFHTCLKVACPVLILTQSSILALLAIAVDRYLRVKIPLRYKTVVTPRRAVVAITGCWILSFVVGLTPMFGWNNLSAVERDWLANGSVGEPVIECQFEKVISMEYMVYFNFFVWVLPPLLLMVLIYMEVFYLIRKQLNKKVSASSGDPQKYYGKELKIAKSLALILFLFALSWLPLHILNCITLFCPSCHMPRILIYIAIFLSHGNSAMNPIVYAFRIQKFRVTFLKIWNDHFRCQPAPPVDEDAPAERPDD
Description: Binding affinity against bovine brain adenosine A1 receptor by using N6-[3H]- cyclohexyladenosine

Bos taurus = species on record: Bos taurus; experiment: log(1000/IC50 determined from bovine brain membrane) expressed as potency; format: functional
[2] = Equilibrium constant (pKa) was determined.; format: physicochemical
[3] = Solubility in 0.1 M phosphate buffer at pH 7.4; format: physicochemical
[4] = Solubility in 0.1 N HCl; format: physicochemical
[5] = Partition coefficient (logP); format: physicochemical; conditions: octanol/water
Adenosine receptor A1 [6] = target: T2, Adenosine receptor A1 (Rattus norvegicus, UniProt P25099); experiment: Binding affinity against rat brain adenosine A1 receptor by using N6-[3H]- cyclohexyladenosine as radioligand
T2 sequence (P25099 whole entry): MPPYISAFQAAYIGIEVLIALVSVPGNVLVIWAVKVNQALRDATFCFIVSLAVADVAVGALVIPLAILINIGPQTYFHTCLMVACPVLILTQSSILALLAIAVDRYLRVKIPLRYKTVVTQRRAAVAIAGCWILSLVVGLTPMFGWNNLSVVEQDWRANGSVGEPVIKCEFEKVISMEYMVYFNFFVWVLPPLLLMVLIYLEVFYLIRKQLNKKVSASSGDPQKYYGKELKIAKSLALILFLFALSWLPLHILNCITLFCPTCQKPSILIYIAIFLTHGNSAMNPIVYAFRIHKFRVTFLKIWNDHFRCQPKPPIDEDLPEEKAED

[7] = phosphate buffer, read-out: Solubility

| IC50 (Adenosine receptor A1 [1]) [nM] | SMILES | Potency (Bos taurus) | also measured |
| --- | --- | --- | --- |
| 0.35 | Cn1c(=O)c2[nH]c(-c3ccc(Cl)cc3N)nc2n(C)c1=O | – | – |
| – | Cn1c(=O)c2nc(-c3cccc(F)c3)[nH]c2n(C)c1=O | 2.4 | – |
| – | CCCn1c(=O)c2[nH]c(-c3ccc(Cl)cc3N)nc2n(CCC)c1=O | – | pKa [2]: 8.4; solubility [3, 7]: < 0.1 µg/mL; solubility [4]: 0.4 µg/mL (≈ 1.11 µM); logP [5]: 4.02 |
| – | C=CCn1c(=O)c2nc(-c3ccc(Cl)cc3N)[nH]c2n(CC=C)c1=O | 3.1 | – |
| – | CCCn1c(=O)c2nc(-c3ccc(Cl)cc3N)[nH]c2n(CCC)c1=O | 4.3 | – |
| 21.9 | Cn1c(=O)c2[nH]c(-c3ccc(S(=O)(=O)O)cc3)nc2n(C)c1=O | – | – |
| 3.3 | CCn1c(=O)c2[nH]c(-c3ccc(N(C)C)cc3)nc2n(CC)c1=O | – | IC50 (Adenosine receptor A1 [6]): 118 nM |
| – | Cn1c(=O)c2nc(-c3ccc(N)cc3N)[nH]c2n(C)c1=O | 2.1 | – |
| – | C=CCn1c(=O)c2[nH]c(-c3ccccc3)nc2n(C)c1=O | 2.4 | – |
| – | Cn1c(=O)c2nc(-c3ccc(Cl)cc3)[nH]c2n(C)c1=O | 3.1 | – |
| 5.5 | Cn1c(=O)c2nc(-c3ccccc3N)[nH]c2n(C)c1=O | 2.26 | – |
| 0.07 | CCCn1c(=O)c2nc(-c3ccc(S(=O)(=O)NCCCCN(C)C)cc3)[nH]c2n(CCC)c1=O | – | IC50 (Adenosine receptor A1 [6]): 7.5 nM |
| – | COc1cccc(-c2nc3c(=O)n(C)c(=O)n(C)c3[nH]2)c1 | 1.7 | – |
| – | CSc1ccc(-c2nc3c(=O)n(C)c(=O)n(C)c3[nH]2)cc1 | 2.7 | – |
| 3.3 | CCn1c(=O)c2nc(-c3ccc(S(=O)(=O)NCCN(C)C)cc3)[nH]c2n(CC)c1=O | – | pKa [2]: 6.8; solubility [3, 7]: 110 µg/mL (≈ 253 µM); solubility [4]: 11500 µg/mL (≈ 26500 µM); IC50 (Adenosine receptor A1 [6]): 116 nM; logP [5]: 2.57 |
| 1.6 | CCn1c(=O)c2[nH]c(-c3ccc(S(=O)(=O)NCCCN(C)C)cc3)nc2n(CC)c1=O | – | IC50 (Adenosine receptor A1 [6]): 70 nM |
| – | CCc1ccc(-c2nc3c(=O)n(C)c(=O)n(C)c3[nH]2)cc1 | 3.1 | – |
| 0.05 | CCCn1c(=O)c2nc(-c3ccc(S(=O)(=O)NCCN(C)C)cc3)[nH]c2n(CCC)c1=O | – | pKa [2]: 6; solubility ([3]; buffer): 50 µg/mL (≈ 108 µM); solubility [4]: 19900 µg/mL (≈ 43000 µM); IC50 (Adenosine receptor A1 [6]): 6.5 nM; logP [5]: 3.32 |
| – | Cn1c(=O)c2nc(-c3ccc([N+](=O)[O-])cc3N)[nH]c2n(C)c1=O | 2.6 | – |
| 12.5 | Cn1c(=O)c2[nH]c(-c3ccccc3F)nc2n(C)c1=O | – | – |
| – | Cc1ccccc1-c1nc2c(=O)n(C)c(=O)n(C)c2[nH]1 | 2.19 | – |

| IC50 (Adenosine receptor A1 [1]) [nM] | SMILES | Potency (Bos taurus) | also measured |
| --- | --- | --- | --- |
| – | COc1ccccc1-c1nc2c(=O)n(C)c(=O)n(C)c2[nH]1 | 0.46 | – |
| – | Cn1c(=O)c2nc(-c3cccc(Br)c3)[nH]c2n(C)c1=O | 2 | – |
| – | Cn1c(=O)c2nc(-c3cccc(O)c3)[nH]c2n(C)c1=O | 2.22 | – |
| – | Cn1c(=O)c2nc(-c3ccc4ccccc4c3)[nH]c2n(C)c1=O | 2.26 | – |
| – | COc1ccc(-c2nc3c(=O)n(C)c(=O)n(C)c3[nH]2)cc1 | 2.82 | – |
| – | Cn1c(=O)c2nc(-c3ccc(O)cc3)[nH]c2n(C)c1=O | 2.7 | – |
| – | Cn1c(=O)c2nc(-c3ccc(N)cc3)[nH]c2n(C)c1=O | 2.76 | – |
| – | Cn1c(=O)[nH]c2[nH]c(-c3ccccc3)nc2c1=O | 2.6 | – |
| – | CCn1c(=O)c2[nH]c(-c3ccccc3)nc2n(CC)c1=O | – | pKa [2]: 9.1; solubility ([3]; buffer): 6 µg/mL (≈ 21.1 µM); solubility [4]: 1 µg/mL (≈ 3.52 µM); logP [5]: 2.93 |
| 0.08 | CCCn1c(=O)c2[nH]c(-c3ccc(S(=O)(=O)NCCCN(C)C)cc3)nc2n(CCC)c1=O | – | IC50 (Adenosine receptor A1 [6]): 8.2 nM |
| – | CCOc1ccc(-c2nc3c(=O)n(C)c(=O)n(C)c3[nH]2)cc1 | 2.7 | – |
| – | Cn1c(=O)c2nc(-c3cccc([N+](=O)[O-])c3)[nH]c2n(C)c1=O | 1.3 | – |
| – | CCn1c(=O)c2nc(-c3ccc(Cl)cc3N)[nH]c2n(CC)c1=O | 3.1 | – |
| 0.15 | CCCn1c(=O)c2nc(-c3ccc(N)cc3N)[nH]c2n(CCC)c1=O | 3.82 | – |
| 3.4 | CCCn1c(=O)c2[nH]c(-c3ccc(S(=O)(=O)O)cc3)nc2n(CCC)c1=O | – | pKa [2]: < 2; solubility [3, 7]: > 24000 µg/mL; solubility [4]: 1300 µg/mL (≈ 3310 µM); IC50 (Adenosine receptor A1 [6]): 120 nM; logP [5]: -0.03 |
| – | Cn1c(=O)c2nc(-c3ccccc3[N+](=O)[O-])[nH]c2n(C)c1=O | 1.1 | – |
| 6.5 | CCn1c(=O)c2nc(-c3ccc(S(=O)(=O)N4CCN(C)CC4)cc3)[nH]c2n(CC)c1=O | – | IC50 (Adenosine receptor A1 [6]): 190 nM |
| – | Cn1c(=O)c2nc(-c3ccc(Br)cc3)[nH]c2n(C)c1=O | 3.12 | – |
| – | C=CCn1c(=O)c2[nH]c(-c3ccc(Cl)cc3N)nc2n(C)c1=O | 2.7 | – |
| 0.91 | CCn1c(=O)c2[nH]c(-c3ccc(S(N)(=O)=O)cc3)nc2n(CC)c1=O | – | IC50 (Adenosine receptor A1 [6]): 47 nM |
